{"source": "patent US11110104B2", "about": "“Glutamine antagonists for the treatment of cognitive deficits and psychiatric disorders” (THE JOHNS HOPKINS UNIVERSITY, priority 2015, dated 2021)", "key": {"[1]": {"experiment": "Pharmacokinetics of DON in swine plasma and CSF", "details": "60 min post-administration"}, "[2]": {"experiment": "Stability in human plasma", "assay_type": "in vitro ADME"}, "[3]": {"experiment": "Stability in monkey plasma", "assay_type": "in vitro ADME"}, "[4]": {"system": "LPS-treated mice", "experiment": "LPS-induced deficit in contextual fear memory reconsolidation", "assay_type": "in vivo, mouse", "details": "1.9 mg/kg, i.p. co-administered with LPS 0.3 mg/kg, i.p. on Day 2", "procedure": "Fear conditioning and testing were performed in sound-attenuating chambers equipped with a metal grid floor to deliver calibrated inescapable footshocks. Fear conditioning (Day 1) consisted of a 2 minute habituation period followed by three 20 second 80 dB 2 kHz tones co-terminating in 0.4 mA footshocks separated by 1 minute interstimulus intervals. One day later (Day 2), each mouse was randomized into one of four treatment groups (PBS/Vehicle, PBS/9, LPS/Vehicle, LPS/9) and co-administered either LPS (0.3 mg/kg, i.p.) or filtered PBS with either 9 (1.9 mg/kg, i.p.) or Vehicle. Four hours later, each mouse was exposed to a reactivation session in which they were placed back in the fear conditioning context for 15 minutes. One day later (Day 3), each mouse underwent a test for fear memory reconsolidation by being placed again in the fear conditioning context for 10 minutes. For each session, time spent freezing was determined using automated motion detection software (CleverSys) and converted to percentages.\nFreezing percentages during the reconsolidation test were grouped by treatment into 2 minute bins. Between group differences were determined by repeated measure two-way ANOVA and post hoc Dunnett's test with significance defined as p<0.05."}, "[5]": {"system": "CSDS mice", "experiment": "Three-chambered social approach test after chronic social defeat stress (CSDS)", "assay_type": "in vivo, mouse", "procedure": "(§1) Compound 25 was synthesized by our laboratory. For all pharmacokinetic and efficacy studies, compound 25 was administered per oral (p.o.) at a dose of 1.82 mg/kg (1 mg/kg DON equivalent) in 50 mM HEPES-buffered saline.\nMale 7- to 8-week-old C57BL/6J (C57) mice (25-30 g; Jackson Laboratory, Bar Harbor, Me.) and 4- to 6-month-old CD-1 retired breeders (35-45 g; Charles River Laboratories, Wilmington, Mass.) were used for all experiments. Mice were housed on a reversed 12-h light/dark cycle, and maintained in a humidity- and temperature-controlled room with water and food available ad libitum. CD-1 mice were singly housed except during social defeats. C57 mice were group housed before starting CSDS and singly housed after CSDS. Behavioral experiments were conducted during the dark cycle. All studies were conducted with approved protocols from the Johns Hopkins University Institutional Animal Care and Use Committee and were in accordance with the NIH guidelines for the Care and Use of Laboratory Animals.\nMice were exposed to CSDS and subsequently administered compound 25 or vehicle every other day for 12 days (FIG. 14A). To examine the effect of compound 25 treatment on behavioral phenotypes induced by CSDS, we first tested the mice in the three-chambered social approach test, where the social approach of a mouse toward a stranger mouse trapped in a wire cage was measured."}, "[6]": {"system": "glutamate in CSF", "experiment": "CSF glutamate levels in EcoHIV mice (LC/MS)", "assay_type": "in vivo, mouse", "procedure": "CSF samples were derivatized with dabsyl chloride for analysis. To prepare a dabsyl chloride stock, acetone was added to dabsyl chloride to 10 mM concentration, vortexed, water bath sonicated for 10 minutes followed by heating to 60° C. for 10 minutes, vortexing again, centrifugation for 5 minutes at 16,000×g and taking the supernatant. Ten microliter standards of glutamate were prepared in artificial CFS by serial dilution. To each standard and sample, one volume of 0.2 M sodium bicarbonate buffer (pH 9.0 containing 100 μM glutamate-d5 as internal standard) and 2 volumes dabsyl chloride stock was added. Samples were incubated at 60° C. 10 minutes to derivatize. […] Glutamate was quantifiable to 10 nM.\nMale C57BL6 mice were sham or EcoHIV-inoculated (4e6 pg p24, i.p.) then randomized to receive vehicle or compound 25 (1.82 mg/kg, i.p. every other day) beginning 15 post-inoculation. On day 33 post-inoculation, all mice were deeply anesthetized with isoflurane 30 minutes post-last dose, and CSF was terminally sampled from the cistema magna prior to measurement of glutamate concentrations by LC/MS-MS. EcoHIV infection caused increases in CSFS glutamate that were normalized by compound 25 treatment. Excluding values >2SD from mean, n=4-5/group. Analysis by two-way ANOVA followed by post-hoc Fisher's LSD, *p<0.05, ***p<0.001. Data are presented as the mean+SEM."}, "[7]": {"system": "CSDS mice", "experiment": "Sucrose preference test after CSDS", "assay_type": "in vivo, mouse", "procedure": "as §1\nThe sucrose preference test was performed according to a previously described protocol (Cao et al, 2013; Roybal et al, 2007). The mice were singly caged before the test. On day 1, their normal water bottles were replaced with two 50 ml tubes (bottle ‘A’ and bottle ‘B’) fitted with bottle stoppers containing two-balled sipper tubes. The position of bottles A and B were switched daily to avoid a side bias, and the fluid consumed from each bottle was measured daily. During days 1 and 2, bottles A and B were filled with normal drinking water (W/W). During days 3 and 4, both bottles were filled with a solution of 1.5% sucrose dissolved in drinking water (S/S). On days 5-8, bottle A contained 1.5% sucrose, and bottle B contained drinking water […]. Sucrose preference on each day for each mouse was calculated as 100%×(Vol A/(Vol A+Vol B)) and averaged across the days for a given condition (W/W, S/S, or S/W). The average of total fluid consumption was also calculated as (Vol A+Vol B).\nTo examine the effect of compound 25 treatment on anhedonia-like behavior, control and CSDS mice were subjected to an 8-day sucrose preference test."}, "[8]": {"system": "EcoHIV-infected mice", "experiment": "Radial arm water maze, therapeutic DON treatment of EcoHIV-infected mice", "assay_type": "in vivo, mouse", "details": "DON 1 mg/kg every other day started 26 days after EcoHIV infection; tests from day 30", "procedure": "The experimental design was for DON prophylaxis except that mice were infected first and DON administration at 1 mg/kg every other day started on Day 26 after infection."}, "[9]": {"system": "EcoHIV-infected mice", "experiment": "Radial arm water maze, DON prophylaxis in EcoHIV-infected mice"}, "[10]": {"system": "STX1A", "experiment": "Gene expression by QPCR in basal ganglia brain tissues of EcoHIV-infected mice", "assay_type": "in vivo, mouse", "details": "DON treatment reversal experiment; tissues collected 15 min after last DON treatment", "procedure": "Relative extent of gene expression tested by QPCR in basal ganglia brain tissues obtained from mice tested in DON treatment reversal experiment shown in FIG. 2A, FIG. 2B, and FIG. 2C. The tissues were collected 15 min after the last DON treatment;"}, "[11]": {"experiment": "DON levels in plasma, CSF and basal ganglia of mice (LC-MS/MS)", "assay_type": "in vivo", "details": "C57Bl, mouse, 15 minutes after dosing, DON 1 mg/kg", "procedure": "DON was spiked into untreated mouse plasma to generate standards at concentrations from 10 nM to 100 μM at half-log intervals. Butanol with 3N HCl (250 μL) was added to standards and samples (50 μL) and centrifuged at 16,000×g for 5 minutes to precipitate proteins. […] After derivatization the samples were dried at 45° C. under a nitrogen stream. Samples were resuspended in 50 μL 70/30 water/acetonitrile, vortexed and centrifuged at 16,000×g. […] Standards within the quantifiable range were used to generate a standard curve. Samples below the limit of quantification (BLQ) were assigned a value of 0.\nBrain analysis: Brain sections were weighed. DON was spiked into untreated mouse brain tissue to generate standards as described above. Butanol with 3N HCl (5 μL/mg) was added to standards and samples and homogenized by pestle followed by centrifugation at 16,000×g. An aliquot (200 μL) of the supernatant was transferred to a new tube and processed as described in the plasma analysis section. Twenty microliters was injected for analysis as described hereinabove."}, "[12]": {"system": "EAE mice", "details": "cited from earlier work"}, "[13]": {"system": "NRGN", "experiment": "Gene expression by QPCR in basal ganglia brain tissues of EcoHIV-infected mice", "assay_type": "in vivo, mouse", "details": "DON treatment reversal experiment; tissues collected 15 min after last DON treatment"}, "[14]": {"details": "DON 1 mg/kg, i.p., […], 30 days post-infection"}}, "note": "Entries after “also recorded” stand apart in the source; their conditions may differ. Like-named read-outs stand apart in the source and are kept apart here."}
{"compound": "CC(C)OC(=O)[C@H](CCC(=O)C=[N+]=[N-])NC(=O)O[C@H](C)OC(=O)C(C)(C)C", "note": "(single isomer, unassigned) [Compound 14b]", "values": [{"measurement": "CSF-to-plasma ratio of DON relative to DON", "setting": "[1]", "result": "increased CSF-to-plasma ratios"}, {"measurement": "amount of DON delivered to the CSF relative to DON", "setting": "[1]", "result": "substantially higher amounts of DON to the CSF"}, {"measurement": "stability in human plasma", "setting": "[2]", "result": "unexpected stability"}, {"measurement": "stability in monkey plasma", "setting": "[3]", "result": "unexpected stability"}]}
{"compound": "CC(C)C[C@H](N)C(=O)N[C@@H](CCC(=O)C=[N+]=[N-])C(=O)OC(C)C", "note": "[Compound 9]", "values": [{"measurement": "LPS-induced reduced freezing during the reconsolidation test (Day 3)", "setting": "[4]", "result": "attenuated; also recorded: indistinguishable from PBS/Veh mice"}]}
{"compound": "CCOC(=O)[C@H](CCC(=O)C=[N+]=[N-])NC(=O)[C@@H](N)CC(C)C", "note": "[Compound 25]", "values": [{"measurement": "social behaviors (time in chamber, time sniffing) in mice subjected to CSDS", "setting": "[5]; 1.82 mg/kg p.o. (1 mg/kg DON equivalent) every other day for 12 days after CSDS", "result": "normalized observed social behaviors"}, {"measurement": "sociability in control mice", "setting": "[5]; 1.82 mg/kg p.o. every other day for 12 days, control mice", "result": "no effect on sociability in control mice"}, {"measurement": "EcoHIV-induced increases in CSF glutamate concentration", "setting": "[6]; 1.82 mg/kg, i.p. every other day, CSF sampled day 33 post-inoculation, 30 minutes post-last dose", "result": "significantly reversed EcoHIV-induced increases in CSF glutamate concentration"}, {"measurement": "sucrose consumption (sucrose preference) in the CSDS group, days 5-8", "setting": "[7]; 1.82 mg/kg p.o. (1 mg/kg DON equivalent), CSDS mice", "result": "markedly restored sucrose consumption"}, {"measurement": "sucrose consumption (sucrose preference) in controls, days 5-8", "setting": "[7]; 1.82 mg/kg p.o., control mice", "result": "no change was observed in controls"}]}
{"compound": "CC(C)OC(=O)[C@H](CCC(=O)C=[N+]=[N-])NC(=O)OC(OC(=O)C(C)(C)C)c1ccccc1", "note": "(stereo partly drawn) [Compound 47]", "values": [{"measurement": "CSF-to-plasma ratio of DON relative to DON", "setting": "[1]", "result": "increased CSF-to-plasma ratios"}, {"measurement": "amount of DON delivered to the CSF relative to DON", "setting": "[1]", "result": "substantially higher amounts of DON to the CSF"}]}
{"compound": "[N-]=[N+]=CC(=O)CC[C@H](N)C(=O)O", "note": "[DON, 6-diazo-5-oxo-L-norleucine]", "values": [{"measurement": "cognitive disease (radial arm water maze)", "setting": "[8]", "result": "completely abrogates (reverses) cognitive disease"}, {"measurement": "HIV-induced cognitive impairment (radial arm water test, learning and memory)", "setting": "[9]; DON 1 mg/kg on alternate days from 24 h before EcoHIV infection, tested 30 days after infection", "result": "prevents development of HIV-induced cognitive impairment"}, {"measurement": "cognitive performance as measured by errors (RAWM, hidden platform)", "setting": "[9]; [14]", "result": "fully normalized cognitive performance"}, {"measurement": "cognitive performance as measured by latency to escape (RAWM, hidden platform)", "setting": "[9]; [14]", "result": "fully normalized cognitive performance"}, {"measurement": "glutamate in CSF of EcoHIV mice", "setting": "[6]; DON-treated mice, no significant differences by one-way ANOVA", "result": "tended to decrease the glutamate in the EcoHIV mice"}, {"measurement": "STX1A gene expression in basal ganglia", "setting": "[10]", "result": "reversed HIV-mediated down-modulation"}, {"measurement": "concentration at 15 min", "setting": "[11]; CSF, read-out: DON concentration in CSF", "result": "300 to 500", "unit": "nM"}, {"measurement": "concentration at 15 min", "setting": "[11]; brain (basal ganglia), read-out: DON concentration in brain tissue (basal ganglia)", "result": "300 to 500", "unit": "nM"}, {"measurement": "concentration at 15 min", "setting": "[11]; plasma, read-out: DON concentration in plasma", "result": "2500 to 3000", "unit": "nM"}, {"measurement": "EAE (disease score), DON from time of immunization", "setting": "[12]; DON i.p. q.a.d. 1.6 mg/kg from the time of immunization (Shijie, et al., 2009)", "result": "attenuates EAE"}, {"measurement": "EAE (disease score), lower doses of DON", "setting": "[12]; DON i.p. q.a.d., doses lower than 1.6 mg/kg (Shijie, et al., 2009)", "result": "ineffective"}, {"measurement": "NRGN gene expression in basal ganglia", "setting": "[13]", "result": "reversed HIV-mediated down-modulation"}]}
